# Assay results from ChEMBL document CHEMBL3885881, “DrugMatrix”.
# Species on record: Rattus norvegicus
# Assay: DrugMatrix - Regimen: Daily Repeat
# Format: toxicity, organism-based, Sprague-Dawley
# Parameters: regimen Daily Repeat, gender Male, age 6-8 weeks
# Conditions: in vivo, sc, […], route mini-PUMP - SUBCUTANEOUS, dose 4.2 mg/Kg, vehicle 100 % SALINE; for ABSOLUTE EOSINOPHIL / ABSOLUTE LYMPHOCYTE / ABSOLUTE MONOCYTE / ABSOLUTE SEGMENTED NEUTROPHIL / BASOPHIL / EOSINOPHIL / ERYTHROCYTE COUNT / HEMATOCRIT / HEMOGLOBIN / LEUKOCYTE COUNT / LYMPHOCYTE / MEAN CORPUSCULAR HEMOGLOBIN / MEAN CORPUSCULAR HEMOGLOBIN CONCENTRATION / MEAN CORPUSCULAR VOLUME / MONOCYTE / NEUTROPHIL / NUCLEATED RED BLOOD CELLS / PLATELET COUNT / ABSOLUTE BASOPHIL: tissue Blood; for ALANINE AMINOTRANSFERASE / ALBUMIN / ALKALINE PHOSPHATASE / ASPARTATE AMINOTRANSFERASE / BLOOD UREA NITROGEN / CARBON DIOXIDE / CHLORIDE / CHOLESTEROL / CREATININE / GLUCOSE / LACTATE DEHYDROGENASE / LIPASE / PHOSPHORUS / POTASSIUM / SODIUM / TOTAL BILIRUBIN / TOTAL PROTEIN / URIC ACID: tissue Plasma
# [1] = 72 h, dose level M1, time 3 day
# [2] = 120 h, dose level M1, time 5 day
compound,measurement,setting,value
CC(C)NCC(O)c1ccc(O)c(O)c1 (stereo not given) [ISOPROTERENOL],ABSOLUTE EOSINOPHIL,[1],46 CELLS/uL
same,ABSOLUTE LYMPHOCYTE,[1],13359 CELLS/uL
same,ABSOLUTE MONOCYTE,[1],389.67 CELLS/uL
same,ABSOLUTE SEGMENTED NEUTROPHIL,[1],972 CELLS/uL
same,BASOPHIL,[1],0%
same,EOSINOPHIL,[1],0.33%
same,ERYTHROCYTE COUNT,[1],5.5 x10E6/uL
same,HEMATOCRIT,[1],32.97%
same,HEMOGLOBIN,[1],12.13 G/DL
same,LEUKOCYTE COUNT,[1],14.77 x10E3/uL
same,LYMPHOCYTE,[1],90.33%
same,MEAN CORPUSCULAR HEMOGLOBIN,[1],22.1 pg
same,MEAN CORPUSCULAR HEMOGLOBIN CONCENTRATION,[1],36.8 G/DL
same,MEAN CORPUSCULAR VOLUME,[1],60.03 fL
same,MONOCYTE,[1],2.67%
same,NEUTROPHIL,[1],6.67%
same,NUCLEATED RED BLOOD CELLS,[1],0.33 /100WBC
same,PLATELET COUNT,[1],1142.67 x10E3/uL
same,ALANINE AMINOTRANSFERASE,[1],50.67 u/L
same,ALBUMIN,[1],3.93 G/DL
same,ALKALINE PHOSPHATASE,[1],337 u/L
same,ASPARTATE AMINOTRANSFERASE,[1],73.67 u/L
same,BLOOD UREA NITROGEN,[1],13.33 mg/dL
same,CARBON DIOXIDE,[1],25.33 mmol/L
same,CHLORIDE,[1],103.67 MEQ/L
same,CHOLESTEROL,[1],77.33 mg/dL
same,CREATININE,[1],0.18 mg/dL
same,GLUCOSE,[1],140.33 mg/dL
same,LACTATE DEHYDROGENASE,[1],151 u/L
same,LIPASE,[1],9 u/L
same,PHOSPHORUS,[1],10.17 mg/dL
same,POTASSIUM,[1],7.09 MEQ/L
same,SODIUM,[1],146.4 MEQ/L
same,TOTAL BILIRUBIN,[1],0.2 mg/dL
same,TOTAL PROTEIN,[1],5.9 G/DL
same,URIC ACID,[1],2.33 mg/dL
same,ABSOLUTE BASOPHIL,[2],0 CELLS/uL
same,ABSOLUTE EOSINOPHIL,[2],84 CELLS/uL
same,ABSOLUTE LYMPHOCYTE,[2],11630 CELLS/uL
same,ABSOLUTE MONOCYTE,[2],485 CELLS/uL
same,ABSOLUTE SEGMENTED NEUTROPHIL,[2],2701 CELLS/uL
same,BASOPHIL,[2],0%
same,EOSINOPHIL,[2],0.5%
same,ERYTHROCYTE COUNT,[2],5.61 x10E6/uL
same,HEMATOCRIT,[2],34.6%
same,HEMOGLOBIN,[2],12.85 G/DL
same,LEUKOCYTE COUNT,[2],14.9 x10E3/uL
same,LYMPHOCYTE,[2],78.5%
same,MEAN CORPUSCULAR HEMOGLOBIN,[2],22.95 pg
same,MEAN CORPUSCULAR HEMOGLOBIN CONCENTRATION,[2],37.15 G/DL
same,MEAN CORPUSCULAR VOLUME,[2],61.75 fL
same,MONOCYTE,[2],3%
same,NEUTROPHIL,[2],18%
same,NUCLEATED RED BLOOD CELLS,[2],0.5 /100WBC
same,PLATELET COUNT,[2],1202 x10E3/uL
same,ALANINE AMINOTRANSFERASE,[2],57 u/L
same,ALBUMIN,[2],4.05 G/DL
same,ALKALINE PHOSPHATASE,[2],244.5 u/L
same,ASPARTATE AMINOTRANSFERASE,[2],74 u/L
same,BLOOD UREA NITROGEN,[2],11.5 mg/dL
same,CARBON DIOXIDE,[2],27 mmol/L
same,CHLORIDE,[2],104.5 MEQ/L
same,CHOLESTEROL,[2],70 mg/dL
same,CREATININE,[2],0.15 mg/dL
same,GLUCOSE,[2],152 mg/dL
same,LACTATE DEHYDROGENASE,[2],156 u/L
same,LIPASE,[2],8.5 u/L
same,PHOSPHORUS,[2],13.1 mg/dL
same,POTASSIUM,[2],6.73 MEQ/L
same,SODIUM,[2],149.4 MEQ/L
same,TOTAL BILIRUBIN,[2],0.15 mg/dL
same,TOTAL PROTEIN,[2],5.9 G/DL
same,URIC ACID,[2],2.25 mg/dL
same,ABSOLUTE BASOPHIL,"dose level M1, time 14 day",0 CELLS/uL
same,ABSOLUTE EOSINOPHIL,"dose level M1, time 14 day",0 CELLS/uL
same,ABSOLUTE LYMPHOCYTE,"dose level M1, time 14 day",12693.75 CELLS/uL
same,ABSOLUTE MONOCYTE,"dose level M1, time 14 day",445.5 CELLS/uL
same,ABSOLUTE SEGMENTED NEUTROPHIL,"dose level M1, time 14 day",2010.75 CELLS/uL
same,BASOPHIL,"dose level M1, time 14 day",0%
same,EOSINOPHIL,"dose level M1, time 14 day",0%
same,ERYTHROCYTE COUNT,"dose level M1, time 14 day",5.78 x10E6/uL
same,HEMATOCRIT,"dose level M1, time 14 day",35.65%
same,HEMOGLOBIN,"dose level M1, time 14 day",12.93 G/DL
same,LEUKOCYTE COUNT,"dose level M1, time 14 day",15.15 x10E3/uL
same,LYMPHOCYTE,"dose level M1, time 14 day",83.25%
same,MEAN CORPUSCULAR HEMOGLOBIN,"dose level M1, time 14 day",22.38 pg
same,MEAN CORPUSCULAR HEMOGLOBIN CONCENTRATION,"dose level M1, time 14 day",36.27 G/DL
same,MEAN CORPUSCULAR VOLUME,"dose level M1, time 14 day",61.73 fL
same,MONOCYTE,"dose level M1, time 14 day",3.25%
same,NEUTROPHIL,"dose level M1, time 14 day",13.5%
same,NUCLEATED RED BLOOD CELLS,"dose level M1, time 14 day",0 /100WBC
same,PLATELET COUNT,"dose level M1, time 14 day",856.5 x10E3/uL
same,ALANINE AMINOTRANSFERASE,"dose level M1, time 14 day",62.75 u/L
same,ALBUMIN,"dose level M1, time 14 day",4.12 G/DL
same,ALKALINE PHOSPHATASE,"dose level M1, time 14 day",336 u/L
same,ASPARTATE AMINOTRANSFERASE,"dose level M1, time 14 day",83.25 u/L
same,BLOOD UREA NITROGEN,"dose level M1, time 14 day",16.5 mg/dL
same,CARBON DIOXIDE,"dose level M1, time 14 day",32 mmol/L
same,CHLORIDE,"dose level M1, time 14 day",100.75 MEQ/L
same,CHOLESTEROL,"dose level M1, time 14 day",75.75 mg/dL
same,CREATININE,"dose level M1, time 14 day",0.21 mg/dL
same,GLUCOSE,"dose level M1, time 14 day",144 mg/dL
same,LACTATE DEHYDROGENASE,"dose level M1, time 14 day",122.25 u/L
same,LIPASE,"dose level M1, time 14 day",8.75 u/L
same,PHOSPHORUS,"dose level M1, time 14 day",13.35 mg/dL
same,POTASSIUM,"dose level M1, time 14 day",7.05 MEQ/L
same,SODIUM,"dose level M1, time 14 day",145.78 MEQ/L
same,TOTAL BILIRUBIN,"dose level M1, time 14 day",0.1 mg/dL
same,TOTAL PROTEIN,"dose level M1, time 14 day",6.1 G/DL
same,URIC ACID,"dose level M1, time 14 day",1.88 mg/dL
